Source: US8986696B2, “Trans-capsular administration of p38 map kinase inhibitors into orthopedic joints” (DePuy Mitek, Inc., priority 2007, dated 2015)
Values joined by “and” are separate entries in the source; they are usually repeats but may differ in a detail not shown here. Equal entries are not always repeated.

Assays:
[1] = tested on: rabbit anterior cruciate ligament transection (ACLT) model of osteoarthritis; experiment: ACLT model, preventative dosing regimen (Example IX); assay type: in vivo; set-up: key to Trochlear Groove Erosion of Cartilage, mean score / Tibial Plateau # of Osteophytes (Medial), mean score: gross grading scale; higher score = more joint damage; key to All Condylar Effects (0-18), mean: score 0-18; higher = more joint damage
Experimental: 130 Female New Zealand white rabbits underwent ACLT on the right knee. Intra-articular injections were administered to the operated knee once per week for five weeks beginning either one or six weeks after the ACLT. All animals were euthanized one week after the administration of the fifth injection. Gross observations were made on the knee joints according to a predetermined grading scale. The stifle joints were removed. Samples were preserved in 10% neutral buffered formalin. The stifle joints were photographed using high-resolution photography.
The ACLT was performed according to the ACLT model discussed above. Animals were group housed in pens on the floor and left untreated for one week to allow healing of the surgical site. Then, once weekly for five weeks, intra-articular injections were administered. One week following the last injection, the animals were sacrificed. The total in-life portion of the preventative dosing regimen was […]. Previous studies have confirmed that the six week time-point allows sufficient degeneration changes to occur.
The study design consisted of an n=10 per group. A total of 160 μl was injected at each administration.
At the time of sacrifice the following parameters were evaluated grossly (the scale follows in parenthesis):
Each parameter was given a score. The combination of all parameters gave a Total Score (0-52). Additionally, combinations of the three subsets of data yielded scores for All Trochlear Groove Effects (0-10), All Condylar Effects (0-18) and All Tibial Plateau Effects (0-24). […] […] The grades that compose this parameter are trochlear groove thickness and erosion, all the grades in All Condylar Effects, and all grades listed under Tibial Plateau. A higher score indicates more damage to the joint. A lower score indicates less damage or more cartilage preservation in the joint. Individual results for each parameter assessed were tabulated.

[2] = tested on: IL-1β-stimulated GAG release, bovine chondrocyte pellets / ARC tissues; experiment: chondrocyte pellet culture model: GAG degradation; assay type: cell-based; settings: for GAG Release: Pellet Assay; for inhibition of GAG degradation: ARC tissues stimulated with IL-1β
Summary of the method: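 Bovine chondrocyte pellets (calf articular cartilage, 2–3 weeks culture) or ARC tissue punches pretreated with compounds for 1 h at 37° C, then 3–5 days with or without 10 ng/ml IL-1β; DMSO ≤1%. Medium GAG measured by dimethylmethylene blue absorbance at 525 nm against chondroitin sulfate; reported as μg/ml or % total GAG released.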

Compound	All Cartilage Effects (0-40), mean [1]	All Condylar Effects (0-18), mean [1]	All Tibial Plateau Effects (0-24), mean [1]	All Trochlear Groove Effects (0-10), mean [1]	Femoral Condyle % Surface Area Erosion (Lateral), mean score [1]	Femoral Condyle % Surface Area Erosion (Medial), mean score [1]	Femoral Condyle Depth of Erosion (Lateral), mean score [1]	Femoral Condyle Depth of Erosion (Medial), mean score [1]	Femoral Condyle Presence of Clefts, mean score [1]	Tibial Plateau # of Osteophytes (Lateral), mean score [1]	Tibial Plateau # of Osteophytes (Medial), mean score [1]	Tibial Plateau % Surface Area Erosion (Lateral), mean score [1]	Tibial Plateau % Surface Area Erosion (Medial), mean score [1]	Tibial Plateau Depth of Erosion (Lateral), mean score [1]	Tibial Plateau Depth of Erosion (Medial), mean score [1]	Tibial Plateau Presence of Clefts (Lateral), mean score [1]	Tibial Plateau Presence of Clefts (Medial), mean score [1]	Total Score (0-52), mean [1]	Trochlear Groove # of Osteophytes, mean score [1]	Trochlear Groove Erosion of Cartilage, mean score [1]	also measured
CC(C(=O)O)c1ccc(C(=O)c2cccs2)cc1 (stereo not drawn) [Suprofen, reference compound]	6.8	4.1	3.1	7.1	2.1	0.1+0.1 and 0.1	1.6	0.3+0.3 and 0.3	0	0.5	1.1	0.9	0	0.5	0	0	0	14.1	2.8	1.5	Trochlear Groove Osteophyte Size, mean score [1]: 2.8; Trochlear Groove Thickening, mean score [1]: 0; GAG Release [2]: No effect
CC(=O)N1CCN(c2c(-c3ccncc3)c(-c3ccc(F)cc3)c(C#N)n2C)CC1 [JNJ 17089540 (RWJ 669307)]	5.8+2.0 and 5.8	2.7 ± 1.3 and 2.7	4.1	6.2	1.2	0.3+0.3 and 0.3	0.2+0.2 and 0.2	0.2+0.2 and 0.2	0	0.4	1.4	1.3	0	0.8	0	0	0	12.9 ± 2.3 and 12.9	2.6	1.0	Trochlear Groove Osteophyte Size, mean score [1]: 2.7; Trochlear Groove Thickening, mean score [1]: 0; inhibition of GAG degradation [2]: little effect; GAG Release [2]: No effect
OCCC#Cc1nc(-c2ccc(F)cc2)c(-c2ccncc2)n1CCCc1ccccc1 [JNJ 3026582 (RWJ 67657), 4-[4-(4-fluorophenyl)-1-(3-phenylpropyl)-5-(4-pyridinyl)-1H-imidazol-2-yl]-3-butyn-1-ol]	4.3+1.8 and 4.3	1.6 ± 1.3 and 1.6	3.7	6.6	0.4 ± 0.3 and 0.4	0.5 ± 0.4 and 0.5	0.4 ± 0.3 and 0.4	0.3+0.3 and 0.3	0	0.6	1.7	0.7	0	0.7	0	0	0	11.9 ± 2.2 and 11.9	2.8	1.3	Trochlear Groove Osteophyte Size, mean score [1]: 2.5; Trochlear Groove Thickening, mean score [1]: 0; inhibition of GAG degradation [2]: significant effect
CC(=O)Oc1cccc2c1C(=O)c1c(OC(C)=O)cc(C(=O)O)cc1C2=O [Diacerein, reference compound]	–	–	–	–	–	–	–	–	–	–	–	–	–	–	–	–	–	–	–	–	lowest concentration inhibiting proteoglycan degradation ([2]; 10 ng/ml IL-1β, five days): ≤ 0.054 µM
C[C@H](Nc1nccc(-c2c(-c3ccc(F)cc3)nc3nc(N)ccn23)n1)c1ccccc1 [JNJ 7583979 (RWJ 351958)]	–	–	–	–	–	–	–	–	–	–	–	–	–	–	–	–	–	–	–	–	inhibition of GAG degradation [2]: significant effect
